Reference: patent US5747545A, “Method of preventing NMDA receptor complex-mediated Neuronal damage” (priority 1995, dated 1998)
“Also recorded” adds a separate entry of the source.

Assays:
[1] = tested on: NMDA receptor (rat cortical neurons in culture); test: Digital fura-2 imaging of NMDA-evoked intracellular [Ca2+] in cultured cortical neurons; type: cell-based, rat (Sprague-Dawley); settings: 50 μM NMDA; Examples 1-2; NTG 100 μM in Example 2
Protocol: The concentration of intracellular free Ca^2+ ([Ca^2+ ]i) is measured in neonatal cortical neurons by digital imaging microscopy with the Ca^2+ sensitive fluorescent dye fura 2, as follows. The same cortical neuronal cultures as described above are used. During Ca^2+ measurements, unless otherwise stated the fluid bathing the neurons consists of Hanks' balanced salts: 137.6 mM NaCl, 1 mM NaHCO3, 0.34 mM Na2 HPO4, 0.44 mM KH2 PO4, 5.36 mM KCl, 1.25 mM CaCl2, 0.5 mM MgSO4, 0.5 mM MgCl2, 5 mM Hepes NaOH, 22.2 mM glucose, and sometimes with phenol red indicator (0.001% v/v); pH 7.2. NMDA (in the absence Mg^++), glutamate, and other substances are usually applied to the neurons by pressure ejection after dilution in this bath solution. Neuronal [Ca^2+ ]i is analyzed with fura 2-acetoxy-methyl ester (AM) as described [Grynkiewicz, et al., J. Biol. Chem. 260:3440 (1985); Williams et al., Nature 318:558 (1985); Connor et al., J. Neurosci. 7:1384 (1987); Connor et al., Science 240:649 (1988); Cohan et al., J. Neurosci. 7:3588 (1987); Mattson, et al., ibid, 9:3728 (1989)]. After adding Eagle's minimum essential medium containing 10 μM fura 2-AM to the neurons, the cultures are incubated at 37° C. in a 5% CO2 /95% air humidified chamber and then rinsed. The dye is loaded, trapped, and deesterified within 1 hour, as determined by stable fluorescence ratios and the effect of the Ca^2+ ionophore ionomycin on [Ca^2+ ]i is measured. During Ca^2+ imaging, the cells are incubated in a solution of Hepes-buffered saline with Hanks' balanced salts. The [Ca^2+ ]i is calculated from ratio images that are obtained by measuring the fluorescence at 500 nm that is excited by 350 and 380 nm light with a DAGE MTI 66 SIT or QUANTEX QX-100 Intensified CCD camera mounted on a Zeiss Axiovert 35 microscope. Exposure time for each picture is 500 ms. Analysis is performed with a Quantex (Sunnyvale, Calif.) QX7-210 image-processing system. Since cells are exposed to ultraviolet light only during data collection (generally less than a total of 20 s per cell), bleaching of fura 2 is minimal.
In this experiment, the effect of NTG on intracellular [Ca^++ ] increases induced by NMDA were followed using digital [Ca^++ ] imaging techniques, based on the dye fura-2.
Specifically, the model for NMDA-mediated neurotoxicity involves exposure of cultured rat cortical neurons to NMDA in the presence of glycine (a co-agonist).
Cortical cultures were derived from embryonic (fetal day 15 or 16) Sprague-Dawley rats as described previously (Dichter, 1978; Rosenberg and Aizenman, 1989). […]

[2] = tested on: NMDA receptor (cortical neurons); test: Patch-clamp recording of NMDA-evoked current in cortical neurons; type: cell-based, rat (Sprague-Dawley); settings: for Effect on NMDA-evoked current: 50 μM NMDA + 1 μM glycine, -60 mV, DTT 2 mM, NTG 500 μM, DTNB 500 μM, 2 min exposure, washout, FIG. 4
[3] = tested on: cortical neurons (NMDA receptor-mediated neurotoxicity); test: Neurotoxicity assay: survival of cortical neurons after DTT and NMDA exposure; type: cell-based, rat; settings: chemical reduction of redox modulatory site
Protocol: To test compounds for their ability to prevent neurotoxicity, neuronal cell death may be assayed as follows. […] The candidate compound is tested by addition (e.g., in a series of concentrations ranging from 0.1 nM-10 mM) after DTT treatment but before NMDA treatment. The candidate compound can be added for minutes, hours, or even days prior to its washout period. […] Neuronal cultures are scored for cell survival after this overnight incubation because NMDA toxicity is often delayed by several hours following NMDA exposure.
Using the neurotoxicity assay described above, the compounds sodium nitroprusside and nitroglycerin were tested individually for their ability to increase survival of neonatal cortical neurons.
As shown in FIG. 6A-6D, surviving neurons are expressed as the percentage of viable neurons in the control culture dishes in the same experiment. The concentrations of drugs were as follows: APV (2 mM), NTG (100 μM), SNP (400 μM), DTT (0.5-2 mM), and reduced Hb (500 μM). […] Values are mean ±SEM for experiments run in triplicate on sibling cultures on separate days (total of 32 experiments). Astericks indicate significant difference compared with the value for DTT-NMDA exposure, P<0.05 (ANOVA followed by Scheffe multiple comparison of means.

[4] = tested on: NMDA receptor (rat cortical neurons in culture); test: Digital fura-2 imaging of NMDA-evoked intracellular [Ca2+] in cultured cortical neurons; type: cell-based, rat (Sprague-Dawley); settings: for Effect on NMDA-evoked [Ca2+]i response (SNOC experiment): after 2 mM DTT, 3 min exposure to 100 μM SNOC, NMDA 50 μM, FIG. 5A, P<0.01
[5] = adult treated for Parkinson's symptoms for several weeks; reversible after discontinuation; cited from earlier work
[6] = tested on: cortical neurons (neuronal survival); settings: SNOC or purified peroxynitrite incubation; listed as OONO^-
Protocol: S-nitrosocysteine was added as a source of NO.cndot. to cerebrocortical cultures (Lei et al., (1992) Neuron 8:1087-1099; Stamler et al., (1992) Science 258:1898-1902).
Peroxynitrite leads to lipid peroxidation and massive oxidation of sulfhydryls (Radi et al., (1991) J. Biol. Chem. 266:4244-4250; Radi et al., (1991) Arch. Biochem. Biophys. 288:481-487).
Values are expressed as mean+s.e.m. (n=9). Statistical comparisons were performed by an analysis of variance followed by a Scheffe multiple comparison of means (*, P<0.01 compared to control; **, P<0.05 compared to control; .dagger., P<0.01 compared to nitroso compound+SOD/catalase).
Specifically, the data in FIG. 7 were generated using mixed neuronal and glial cortical cultures from neonatal rats, as described previously (Lei, et al., (1992) Neuron 8:1087-1099). In at least three separate experiments, triplicate cultures were incubated overnight in Earle's buffered saline solution (EBSS) containing various concentrations of SNOC, peroxynitrite, SOD, catalase, or glutamate. […] The culture fluid was assayed for […] (LDH) as an indicator of neuronal survival by measuring the absorbance at 450 nm (Koh et al., (1987) J. Neurosci. Meth. 20:83-90). The cultures were also scored for neuronal viability by cell counting, generally with 0.2% trypan blue, after fixation in 2.5% glutaraldehyde, as described above. Neurons from cultures grown on 15 mm diameter cover slips were counted in a masked fashion in ~30 microscopic fields at 200 x.

O[C@H](CS)[C@H](O)CS (racemic) [DTT, dithiothreitol]
Effect on NMDA-evoked [Ca2+]i response [1]: reversed the effect of NTG
Effect on NMDA-evoked current [2]: enhanced the NMDA-evoked current; also recorded: increased NMDA-activated currents
Effect on neurotoxic effect of NMDA [3]: increases the neurotoxic effect of NMDA
Effect on NMDA-evoked [Ca2+]i response (SNOC experiment) [4]: the NMDA-evoked response was increased; also recorded: fully reversed the inhibitory effect of S-nitrosocysteine

O[C@H](CS)[C@H](O)CS (relative stereo) [dithiothreitol (DTT)]
Effect on NMDA-evoked [Ca2+]i response [1]: further enhanced

O=C(O)c1cc(SSc2ccc([N+](=O)[O-])c(C(=O)O)c2)ccc1[N+](=O)[O-] [DTNB, 5,5dithio-bis-2-nitrobenzoic acid]
Effect on NMDA-evoked [Ca2+]i response [1]: decreased the NMDA evoked [Ca^2+ ]i responses
Effect on NMDA-evoked current [2]: decreased the responses slightly
Effect on amplitude of NMDA evoked current following alkylation with NEM ([2]; after 1-5 mM NEM): neither NTG nor DTNB significantly affected the amplitude of NMDA evoked current

CCN1C(=O)C=CC1=O [NEM, N-ethylmalemide]
Effect of NEM pretreatment on the SNOC effect on NMDA-evoked [Ca2+]i ([4]; NEM pretreatment, FIG. 5B): blocks the effect of SNOC

CN[C@H](CC(=O)O)C(=O)O [NMDA, N-methyl-D-aspartate]
Maximum NMDA response obtained after exposure to DTT, [Ca2+]i ([4]; NMDA 50 μM after 2 mM DTT, FIG. 5): ~ 750 nM [Ca2+]i

NC(CSN=O)C(=O)O (stereo not shown) [S-nitrosocysteine (SNOC)]
Effect on NMDA-evoked [Ca2+]i response (SNOC experiment) [4]: inhibited

Cl.NC12CC3CC(CC(C3)C1)C2 [amantadine, 1-adamantanamine hydrochloride]
Visual loss (case report) [5]: one case report of visual loss in an adult patient

O=NOO [peroxynitrite]
Killing of cortical neurons [6]: kills neurons in a dose-dependent fashion
